Measured values taken from the NIST ThermoML archive (doi:10.1021/je0340755).

Experiment: xn = mol fraction of the nth substance listed
Conditions: 101.3 kPa, Liquid; for viscosity: Capillary tube (Ostwald / Ubbelohde) method

OCCCCO [1,4-butanediol] + O
Conditions	mass density, 318.15 K [kg/m3]	mass density, 328.15 K [kg/m3]	mass density, 338.15 K [kg/m3]	speed of sound, 318.15 K [m/s]	speed of sound, 328.15 K [m/s]	speed of sound, 338.15 K [m/s]	viscosity, 328.15 K [mPa·s]	viscosity, 338.15 K [mPa·s]
x2 = 0.055	–	994.94	988.66	–	1554.9	1531.3	18.38	12.72
x2 = 0.1534	–	996.05	989.67	–	1564.8	1540.8	16.32	11.28
x2 = 0.2472	–	997.2	990.72	–	1575.6	1549.4	14.35	9.897
x2 = 0.3542	–	998.64	992.05	–	1590.3	1562.2	12.12	8.335
x2 = 0.4531	–	999.93	993.23	–	1605	1575.1	10.08	6.914
x2 = 0.498	–	1000.44	993.7	1640	1610.8	1580.7	9.167	6.279
x2 = 0.5578	1008.07	1001.01	994.23	1648.7	1618.6	1588.5	7.972	5.449
x2 = 0.6513	1008.53	1001.51	994.7	1661.1	1631.1	1599	6.178	4.213
x2 = 0.7496	1007.83	1000.99	994.27	1671.4	1641.4	1611.3	4.438	3.033
x2 = 0.8475	1004.59	998.24	991.81	1669	1642.3	1615.6	2.877	2
x2 = 0.9081	1000.44	994.62	988.57	1645	1626.3	1606.6	1.965	1.404
x2 = 0.9152	999.82	994.08	988.08	1640.3	1623.2	1605.1	1.858	1.335
x2 = 0.9253	998.88	993.26	987.35	1633.3	1618	1601.7	1.705	1.235
x2 = 0.9355	997.88	992.38	986.56	1624.2	1611.8	1597.4	1.549	1.133
x2 = 0.9543	995.86	990.62	984.97	1604.9	1597.3	1587.8	1.257	0.941
x2 = 0.955	995.78	990.55	984.91	1603.8	1596.3	1586.8	1.246	0.934
x2 = 0.9597	995.24	990.08	984.49	1598.2	1592.2	1584.2	1.172	0.885
x2 = 0.9699	994.03	989.02	983.54	1584.8	1581.9	1577.1	1.009	0.776
x2 = 0.9804	992.74	987.89	982.52	1568.2	1569.6	1569	0.837	0.662
x2 = 0.9901	991.5	986.81	981.56	1552.7	1558.3	1560	0.674	0.553
x2 = 0.9924	991.2	986.55	981.32	1548.3	1555.3	1558.2	0.635	0.527
x2 = 0.9955	990.8	986.2	981.01	1542.8	1550.2	1554.5	0.581	0.491
